From publication PMC12670400, “LEKTI-Grafted Sunflower Trypsin Inhibitor: A Potential Therapeutic for Skin Diseases” (Journal of Medicinal Chemistry, 2025) come the findings set out here.

Bridge positions count the residues as written; N and C are the ends. Peptide text beside a SMILES is read from it.

Assay [1] concerns endogenous KLK5 of healthy donor keratinocytes. Description: KLK5 protease activity assay for culture medium of healthy donor keratinocytes. Format: biochemical, human. The note with it: 100 nM, 1 μM, 10 μM; p > 0.05, n = 9. As to the method: To evaluate the inhibition of lead 7 on endogenous KLK5 activity, media collected from cultured NS keratinocytes and healthy donor keratinocytes were incubated with lead 7 at the final concentration of 100 nM, or 1 μM, or 10 μM for one hour. Media were then concentrated, and KLK5 activity was measured. […] There were significant differences in KLK5 activity before and after treatment (p < 0.05, n = 3). […] This may be because lead 7 exerts inhibitory effects only when KLK5 activity exceeds a certain threshold, which is not reached in keratinocytes from healthy donors. It was noted that the activity of KLK5 in NS was not reduced to the levels observed in normal keratinocytes. […]
calcium signalling. […] Fluorescence excitation was set at 485 nm, and emission was recorded at 520 nm using SpectraMax® i3x plate reader. […]
Keratinocytes were seeded in 6 well plate with the density of 0.2 × 10⁶ cells per well and cultured in RM+ medium until they reached confluency. […] The enzymatic reaction was initiated by adding 100 µL of Boc-VPR-AMC substrate (final concentration 100 µM) to each well and RFU values in samples were measured. Protease activities were expressed as nmol/g by first converting RFU readings to KLK5 equivalent concentration activity using a KLK5 standard curve, followed by normalization to total protein content

For assay [2], the system named is NS keratinocytes. Kind of assay: Transepithelial electrical resistance (TEER) assay, NS keratinocytes. In kind it is cell-based, human. The note with it: 1 μM, 9 days, p < 0.05, n = 18. From the text: KLK5 regulates epidermal barrier homeostasis by targeting corneodesmosomal proteins involved in cell–cell adhesion, including desmoglein-1 (DSG1), desmocollin-1 (DSC1), and corneodesmosin (CDSN). Dysregulated KLK5 activity can accelerate the degradation of these adhesion molecules, leading to impaired corneocyte cohesion and disruption of the epithelial barrier. To assess whether control of KLK5 activity by lead 7 could improve barrier integrity, the resistance of epidermal sheets generated using NS and healthy donor keratinocytes was measured using a transepithelial electrical resistance (TEER) assay. Keratinocytes from NS keratinocyte and three healthy donors were seeded in 6-well plates and cultured in the medium with 1 μM of lead 7 or without. The medium was replaced every 3 days with fresh lead 7 added in the treated groups. TEER measurements were performed every other day, and cultures were maintained until TEER values reached a plateau (9 days).
Transepithelial Electrical Resistance (TEER) assay […]
Transepithelial electrical resistance (TEER) values in ohms (Ω) were measured using the EVOM™ Manual Resistance Meter (World Precision Instruments, cat no. EVM-MT-03-02). Background resistance was first recorded using inserts containing only medium (without cells). […]
One-way ANOVA was used for KLK5 activity study. […] TEER study data was analysed using the Wilcoxon […]

On to `C[C@@H](O)[C@@H]1NC(=O)[C@@H]2CSSC[C@H](NC(=O)[C@H](CCC(=O)O)NC(=O)[C@@H]3CCCN3C(=O)[C@@H]3CCCN3C(=O)[C@H](CC(N)=O)NC(=O)[C@H](CO)NC(=O)[C@H](CCCNC(=N)N)NC1=O)C(=O)N[C@@H](Cc1c[nH]c3ccccc13)C(=O)N1CCC[C@H]1C(=O)N[C@@H](CC(N)=O)C(=O)NCC(=O)N[C@@H](Cc1ccccc1)C(=O)N2` [compound 7] (cyclo(GFCTRSNPPECWPN); disulfide 3-11), for which the “KLK5 activity before and after treatment, normal donor keratinocytes” value in assay [1] was “no significant differences”. The “TEER, treated versus untreated NS keratinocytes” value in assay [2] is reported as “obvious increase in TEER values”.
